# Source: ChEMBL document CHEMBL6153042, “Glycoconjugates of adefovir and tenofovir as asialoglycoprotein-mediated Anti-HBV prodrugs with enhanced liver targeting” (Eur J Med Chem, 2025)
# Key:
# [1] = Prodrug release in human HepG2 cells assessed as adefovir release by mass spectrometric analysis; type: ADME, cell-based
# [2] = Prodrug release in human HepG2 cells assessed as tenofovir release by mass spectrometric analysis; type: ADME, cell-based
# [3] = Drug metabolism in plasma of Sprague-Dawley rat assessed as hydrolyzed metabolite formation measured after 5 hrs by HPLC analysis; type: ADME, cell-free
# [4] = Prodrug release in human HepG2 cells assessed as tenofovir release measured over 1 hrs by HPLC analysis; type: ADME, cell-based; conditions: hepg2, 1 h
# [5] = Prodrug release in human HepG2 cells assessed as adefovir release measured over 1 hrs by HPLC analysis; type: ADME, cell-based; conditions: hepg2, 1 h
# [6] = Metabolic stability in human liver microsomes assessed as half-life measured upto 60 mins by LC-MS/MS analysis; type: ADME, Microsome
# [7] = Tmax in Sprague-Dawley rat at 50 mg/kg, po by LC-MS analysis; type: ADME, organism-based; conditions: in vivo
# [8] = Toxicity in Kunming mouse assessed as effect on kidney colour at 100 to 200 mg/kg, iv once daily for 5 days; type: organism-based; conditions: in vivo, 120 h, dose 100-200 mg/kg, time 5 day
# [9] = Toxicity in Kunming mouse assessed as histopathological changes in liver at 200 mg/kg, iv once daily for 5 days by H and E staining based analysis; type: organism-based; conditions: in vivo, 120 h, time 5 day
# [10] = Toxicity in Kunming mouse assessed as effect on heart size at 100 to 200 mg/kg, iv once daily for 5 days; type: organism-based; conditions: in vivo, 120 h, dose 100-200 mg/kg, time 5 day
# [11] = Toxicity in Kunming mouse assessed as effect on heart colour at 100 to 200 mg/kg, iv once daily for 5 days; type: organism-based; conditions: in vivo, 120 h, dose 100-200 mg/kg, time 5 day
# [12] = Toxicity in Kunming mouse assessed as effect on liver size at 100 to 200 mg/kg, iv once daily for 5 days; type: organism-based; conditions: in vivo, 120 h, dose 100-200 mg/kg, time 5 day
# [13] = Toxicity in Kunming mouse assessed as effect on liver weight at 100 to 200 mg/kg, iv once daily for 5 days; type: organism-based; conditions: in vivo, 120 h, dose 100-200 mg/kg, time 5 day
# [14] = Toxicity in Kunming mouse assessed as maximum tolerated dose administered intravenously as once daily dose for 5 days; conditions: in vivo, route iv, time 5 day
# [15] = Half-life in Sprague-Dawley rat at 5 mg/kg, iv by LC-MS analysis; type: ADME, organism-based; conditions: in vivo
# [16] = Cmax in Sprague-Dawley rat at 50 mg/kg, po by LC-MS analysis; type: ADME, organism-based; conditions: in vivo
# [17] = Toxicity in Kunming mouse assessed as effect on kidney weight at 100 to 200 mg/kg, iv once daily for 5 days; type: organism-based; conditions: in vivo, 120 h, dose 100-200 mg/kg, time 5 day
# LX-2 [18] = assay: (§1) Cytotoxicity against human LX2 cells assessed as cell growth inhibition at 10 uM incubated for 48 hrs by CCK8 assay relative to control; type: toxicity, cell-based; conditions: lx-2, 48 h, 10 µM
# LX-2 [19] = assay: Cytotoxicity against human LX2 cells at 5 uM incubated for 48 hrs by CCK8 assay; type: toxicity, cell-based; conditions: lx-2, 48 h
# [20] = AUC (0 to t) in Sprague-Dawley rat at 50 mg/kg, po by LC-MS analysis; type: ADME, organism-based; conditions: in vivo
# [21] = Selectivity index, the ratio of CC50 for human HepG2.2.15 cells to EC50 for antiviral activity against HBV in human HepG2.2.15 cells assessed as inhibition of HBV DNA replication; type: toxicity, cell-based; conditions: read-out: Ratio CC50/EC50
# [22] = Toxicity in Kunming mouse assessed as effect on body weight at 100 to 200 mg/kg, iv administered once daily for 5 days; type: organism-based; conditions: in vivo, 120 h, dose 100-200 mg/kg, time 5 day
# [23] = Tmax in Sprague-Dawley rat at 5 mg/kg, iv by LC-MS analysis; type: ADME, organism-based; conditions: in vivo
# [24] = Cmax in Sprague-Dawley rat at 5 mg/kg, iv by LC-MS analysis; type: ADME, organism-based; conditions: in vivo
# [25] = AUC (0 to t) in Sprague-Dawley rat at 5 mg/kg, iv by LC-MS analysis; type: ADME, organism-based; conditions: in vivo
# [26] = AUC (0 to infinity) in Sprague-Dawley rat at 5 mg/kg, iv by LC-MS analysis; type: ADME, organism-based; conditions: in vivo
# [27] = Half-life in Sprague-Dawley rat at 50 mg/kg, po by LC-MS analysis; type: ADME, organism-based; conditions: in vivo
# [28] = AUC (0 to infinity) in Sprague-Dawley rat at 50 mg/kg, po by LC-MS analysis; type: ADME, organism-based; conditions: in vivo
# [29] = Metabolic stability in rat liver microsomes assessed as half-life measured upto 60 mins by LC-MS/MS analysis; type: ADME, Microsome
# Hepatitis B virus = assay: Antiviral activity against Hepatitis B virus infected in human HepG2.2.15 cells assessed as inhibition of HBV DNA replication incubated for 10 day by qPCR analysis; type: functional, organism-based; conditions: HepG2.2.15, 240 h
# [30] = Oral bioavailability in Sprague-Dawley rat at 50 mg/kg by LC-MS analysis; type: ADME, organism-based; conditions: in vivo
# [31] = Toxicity in Kunming mouse assessed as effect on liver colour at 100 to 200 mg/kg, iv once daily for 5 days; type: organism-based; conditions: in vivo, 120 h, dose 100-200 mg/kg, time 5 day
# [32] = Clearance in Sprague-Dawley rat at 5 mg/kg, iv by LC-MS analysis; type: ADME, organism-based; conditions: in vivo
# [33] = Toxicity in Kunming mouse assessed as histopathological changes in kidney at 200 mg/kg, iv once daily for 5 days by H and E staining based analysis; type: organism-based; conditions: in vivo, 120 h, time 5 day
# [34] = Toxicity in Kunming mouse assessed as effect on heart weight at 100 to 200 mg/kg, iv once daily for 5 days; type: organism-based; conditions: in vivo, 120 h, dose 100-200 mg/kg, time 5 day
# [35] = Toxicity in Kunming mouse assessed as effect on kidney size at 100 to 200 mg/kg, iv once daily for 5 days; type: organism-based; conditions: in vivo, 120 h, dose 100-200 mg/kg, time 5 day
# [36] = Toxicity in Kunming mouse assessed as histopathological changes in heart at 200 mg/kg, iv once daily for 5 days by H and E staining based analysis; type: organism-based; conditions: in vivo, 120 h, time 5 day
# [37] = Cytotoxicity against human HepG2.2.15 cells assessed as inhibition of cell proliferation by CCK8 assay; type: toxicity, cell-based, HepG2 2.2.15
# [38] = Drug uptake in Sprague-Dawley rat at 50 mg/kg, po or 5 mg/kg, iv measured after 2 to 3 hrs by LC-MS/MS analysis; type: ADME, organism-based; conditions: in vivo, time 2-3 hrs
# [39] = Clearance in Sprague-Dawley rat at 50 mg/kg, po by LC-MS analysis; type: ADME, organism-based; conditions: in vivo
# [40] = as §1; type: toxicity, cell-based, LX-2; conditions: LX2 cells, read-out: GI
# [41] = Drug uptake in Sprague-Dawley rat kidney at 10 mg/kg, iv measured after 1 to 6 hrs by LC-MS/MS analysis; type: ADME, organism-based; conditions: in vivo, time 1-6 hrs
Structure (SMILES),Drug metabolism [1],Drug metabolism [2],Drug metabolism [3],Drug metabolism [4],Drug metabolism [5],half-life [6] [min],Tmax [7] [min],Activity [8],Activity [9],Activity [10],Activity [11],Activity [12],Activity [13],MTD at 120 h [14] [mg/kg],half-life [15] [min],Cmax [16] [ng/mL],Activity (LX-2 [19]),selectivity ratio [21],EC50 (Hepatitis B virus) [nM],CC50 [37] [nM],also measured
CC(=O)N[C@H]1[C@H](OCCCCC(=O)NCCCNC(=O)CCOCC(COCCC(=O)NCCCNC(=O)CCCCO[C@@H]2O[C@H](CO)[C@H](O)[C@@H](O)[C@H]2NC(C)=O)(COCCC(=O)NCCCNC(=O)CCCCO[C@@H]2O[C@H](CO)[C@H](O)[C@@H](O)[C@H]2NC(C)=O)NC(=O)CCC(=O)NCCOCCOCCOCCOCCn2cc(COP(=O)(O)COCCn3cnc4c(N)ncnc43)nn2)O[C@H](CO)[C@H](O)[C@H]1O,metabolite_detected,metabolite_detected,metabolite_notdetected,metabolite_detected,metabolite_detected,,,,,,,,,,,,,,,,
CC(=O)N[C@H]1[C@H](OCCCCC(=O)NCCOCCOCCOCCOCCn2cc(COP(=O)(CO[C@H](C)Cn3cnc4c(N)ncnc43)OCOC(=O)C(C)(C)C)nn2)O[C@H](CO)[C@H](O)[C@H]1O (some centres not stated),,,,,,12.4,45,Non-toxic,Non-toxic,Non-toxic,Non-toxic,Non-toxic,Non-toxic,~200,67.2,1500,Toxic,> 468,214,> 100000,Activity [17]: Non-toxic; Activity (LX-2 [18]): Toxic; AUC(0-t) [20]: 4900 ng·h/mL; Activity [22]: Non-toxic; Tmax [23]: 1.98 min; Cmax [24]: 2030 ng/mL; AUC(0-t) [25]: 2100 ng·h/mL; AUC(0-inf) [26]: 2130 ng·h/mL; half-life [27]: 192 min; AUC(0-inf) [28]: 4930 ng·h/mL; half-life [29]: 2.13 min; bioavailability [30]: 23.4%; Activity [31]: Non-toxic; clearance [32]: 40.7 mL/min/kg; Activity [33]: Non-toxic; Activity [34]: Non-toxic; Activity [35]: Non-toxic; Activity [36]: Non-toxic; Drug uptake [38]: Not_active; CL/F [39]: 172 mL/min/kg
CC(=O)N[C@H]1[C@H](OCCCCC(=O)NCCOCCOCCOCCOCCn2cc(COP(=O)(COCCn3cnc4c(N)ncnc43)OCOC(=O)C(C)(C)C)nn2)O[C@H](CO)[C@H](O)[C@H]1O (some centres not stated),,,,,,14.9,40.2,Non-toxic,Non-toxic,Non-toxic,Non-toxic,Non-toxic,Non-toxic,~200,46.8,1290,Toxic,> 384,260,> 100000,Activity [17]: Non-toxic; Activity (LX-2 [18]): Toxic; AUC(0-t) [20]: 3300 ng·h/mL; Activity [22]: Non-toxic; Tmax [23]: 1.98 min; Cmax [24]: 2010 ng/mL; AUC(0-t) [25]: 1990 ng·h/mL; AUC(0-inf) [26]: 2000 ng·h/mL; half-life [27]: 191 min; AUC(0-inf) [28]: 3310 ng·h/mL; half-life [29]: 2.33 min; bioavailability [30]: 16.6%; Activity [31]: Non-toxic; clearance [32]: 42.1 mL/min/kg; Activity [33]: Non-toxic; Activity [34]: Non-toxic; Activity [35]: Non-toxic; Activity [36]: Non-toxic; Drug uptake [38]: Not_active; CL/F [39]: 252 mL/min/kg
CC(=O)N[C@H]1[C@H](OCCCCC(=O)NCCCNC(=O)CCOCC(COCCC(=O)NCCCNC(=O)CCCCO[C@@H]2O[C@H](CO)[C@H](O)[C@@H](O)[C@H]2NC(C)=O)(COCCC(=O)NCCCNC(=O)CCCCO[C@@H]2O[C@H](CO)[C@H](O)[C@@H](O)[C@H]2NC(C)=O)NC(=O)CCC(=O)NCCOCCOCCOCCOCCn2cc(COP(=O)(O)CO[C@H](C)Cn3cnc4c(N)ncnc43)nn2)O[C@H](CO)[C@H](O)[C@H]1O (racemic),metabolite_detected,metabolite_detected,metabolite_notdetected,metabolite_detected,metabolite_detected,,,,,,,,,,,,,,,,
CC(C)(C)C(=O)OCOP(=O)(COCCn1cnc2c(N)ncnc21)OCOC(=O)C(C)(C)C [ADEFOVIR DIPIVOXIL],,,,,,,,,,,,,,,,,Non-toxic,44.6,240,10700,"inhibition at 48 h, 10 µM [40]: ~30%; Drug uptake [41]: Active"
CC(C)OC(=O)OCOP(=O)(CO[C@H](C)Cn1cnc2c(N)ncnc21)OCOC(=O)OC(C)C.O=C(O)/C=C/C(=O)O [TENOFOVIR DISOPROXIL FUMARATE],,,,,,,,,,,,,,,,,Non-toxic,43.7,188,8200,"inhibition at 48 h, 10 µM [40]: ~30%; Drug uptake [41]: Active"
